Read-outs that look alike come from different tables or passages of the source.
Columns and labels:
UGT1A1 [1] = biological target: T1, UGT1A1 (Homo sapiens, UniProt P22309); conditions: cited from earlier work
[2] = test system: patients with chronic GVHD; assay: Study KD025-213 efficacy, belumosudil 200 mg daily cohort; assay type: in vivo, human; conditions: for Median time from first response to death or new systemic therapy: 49 responders; for Overall response rate (ORR) through Cycle 7 Day 1 (CR or PR): N=65, 2014 NIH consensus criteria, FDA adjudicated; for Patients with 7-point or greater decrease in Lee Symptom Scale summary score through Cycle 7 Day 1: N=65, exploratory; for Median duration of response: responders
mTOR pathway = conditions: in vitro; cited from earlier work
CYP2D6 = CYP2D6 (Homo sapiens, UniProt P10635); conditions: cited from earlier work
Chain of CYP2D6 (P10635 whole entry): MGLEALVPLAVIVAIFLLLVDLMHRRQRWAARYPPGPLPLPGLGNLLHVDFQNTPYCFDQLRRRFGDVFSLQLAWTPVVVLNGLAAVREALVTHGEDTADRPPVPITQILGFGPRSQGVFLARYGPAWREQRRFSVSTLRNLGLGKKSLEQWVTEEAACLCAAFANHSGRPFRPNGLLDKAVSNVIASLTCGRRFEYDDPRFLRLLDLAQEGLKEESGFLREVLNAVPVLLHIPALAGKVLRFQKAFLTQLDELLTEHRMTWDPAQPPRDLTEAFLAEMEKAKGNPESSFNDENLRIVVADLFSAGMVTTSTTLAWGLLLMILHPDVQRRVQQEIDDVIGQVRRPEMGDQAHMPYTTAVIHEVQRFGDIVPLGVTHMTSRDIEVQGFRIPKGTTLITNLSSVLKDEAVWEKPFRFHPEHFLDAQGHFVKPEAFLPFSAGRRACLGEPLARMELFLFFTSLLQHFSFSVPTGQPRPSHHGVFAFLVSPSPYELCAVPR

animals = assay: Animal toxicology studies; assay type: in vivo
dogs = assay: Safety pharmacology studies in dogs; assay type: in vivo, dog
CYP3A = conditions: cited from earlier work
[3] = test system: adult patients with cGVHD; assay: Clinical safety, Studies KD025-208 and KD025-213, belumosudil 200 mg daily; assay type: in vivo, human
[4] = Clinical pharmacokinetics of belumosudil; assay type: in vivo, human
cGVHD mouse models = conditions: cited from earlier work
p-glycoprotein = conditions: cited from earlier work
CYP3A4 = CYP3A4 (Homo sapiens, UniProt P08684); assay: In vitro metabolism; assay type: in vitro ADME
Chain of CYP3A4 (P08684 whole entry): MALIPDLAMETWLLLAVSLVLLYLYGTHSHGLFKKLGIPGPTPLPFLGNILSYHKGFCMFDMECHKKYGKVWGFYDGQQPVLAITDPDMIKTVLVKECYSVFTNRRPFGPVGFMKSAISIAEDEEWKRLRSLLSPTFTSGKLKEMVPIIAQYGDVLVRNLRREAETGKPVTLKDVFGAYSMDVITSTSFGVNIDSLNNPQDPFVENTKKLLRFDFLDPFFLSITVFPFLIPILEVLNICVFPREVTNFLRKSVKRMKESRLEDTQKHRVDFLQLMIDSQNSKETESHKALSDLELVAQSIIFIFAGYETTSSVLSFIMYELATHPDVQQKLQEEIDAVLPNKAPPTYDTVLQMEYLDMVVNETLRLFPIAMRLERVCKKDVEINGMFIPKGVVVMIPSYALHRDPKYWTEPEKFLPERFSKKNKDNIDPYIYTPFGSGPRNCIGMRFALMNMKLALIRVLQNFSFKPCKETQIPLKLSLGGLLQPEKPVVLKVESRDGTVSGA

[5] = Population pharmacokinetics; design: species or system human; conditions: in comparison to healthy volunteers
MRTF = conditions: ex-vivo or in vitro; cited from earlier work
Photoabsorbance in vitro = assay type: physicochemical
BCRP = conditions: cited from earlier work
CYP1A2 = conditions: cited from earlier work
[6] = cited from earlier work
[7] = Reproductive toxicity studies; conditions: in vivo
STAT3 = conditions: ex-vivo or in vitro; cited from earlier work
patients with cGVHD [8] = assay: Pooled exposure-response analyses; design: species or system human; conditions: 186 patients
UGT1A1 [9] = biological target: T1, UGT1A1; assay: UGT1A1 inhibition; assay type: in vitro ADME; conditions: at concentrations that could be achieved clinically
Tissue distribution = conditions: in vivo
CYP2C19 = conditions: cited from earlier work
CYP2C8 = CYP2C8 (Homo sapiens, UniProt P10632); assay: In vitro metabolism; assay type: in vitro ADME
Chain of CYP2C8 (P10632 whole entry): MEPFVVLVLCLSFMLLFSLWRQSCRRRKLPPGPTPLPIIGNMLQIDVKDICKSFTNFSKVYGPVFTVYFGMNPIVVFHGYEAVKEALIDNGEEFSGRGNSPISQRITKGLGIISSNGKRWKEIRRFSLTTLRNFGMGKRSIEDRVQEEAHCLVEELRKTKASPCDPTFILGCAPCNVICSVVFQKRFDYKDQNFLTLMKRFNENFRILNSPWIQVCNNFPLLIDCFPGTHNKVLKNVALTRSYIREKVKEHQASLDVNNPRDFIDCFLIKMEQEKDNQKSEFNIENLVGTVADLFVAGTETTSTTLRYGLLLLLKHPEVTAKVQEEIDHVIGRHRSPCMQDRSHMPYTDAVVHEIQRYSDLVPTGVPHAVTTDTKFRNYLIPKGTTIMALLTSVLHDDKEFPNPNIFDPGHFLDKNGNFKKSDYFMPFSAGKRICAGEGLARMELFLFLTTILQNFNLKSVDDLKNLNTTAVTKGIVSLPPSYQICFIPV

OATP1B1 = conditions: cited from earlier work
[10] = test system: human peripheral blood mononuclear cells; conditions: CD3-CD28 stimulation of human PBMC, ex-vivo or in vitro; cited from earlier work
ROCK1 isoform = conditions: in vitro, compared with ROCK2; cited from earlier work
patients with cGVHD [11] = assay: Study KD025-208 dose-escalation trial; assay type: in vivo, human; conditions: 200 mg daily, 200 mg twice daily and 400 mg daily; 54 patients failing 1-3 prior lines
ROCK2 = ROCK2 (Homo sapiens, UniProt O75116); assay: ROCK2 inhibition; assay type: biochemical
Chain of ROCK2 (O75116 whole entry): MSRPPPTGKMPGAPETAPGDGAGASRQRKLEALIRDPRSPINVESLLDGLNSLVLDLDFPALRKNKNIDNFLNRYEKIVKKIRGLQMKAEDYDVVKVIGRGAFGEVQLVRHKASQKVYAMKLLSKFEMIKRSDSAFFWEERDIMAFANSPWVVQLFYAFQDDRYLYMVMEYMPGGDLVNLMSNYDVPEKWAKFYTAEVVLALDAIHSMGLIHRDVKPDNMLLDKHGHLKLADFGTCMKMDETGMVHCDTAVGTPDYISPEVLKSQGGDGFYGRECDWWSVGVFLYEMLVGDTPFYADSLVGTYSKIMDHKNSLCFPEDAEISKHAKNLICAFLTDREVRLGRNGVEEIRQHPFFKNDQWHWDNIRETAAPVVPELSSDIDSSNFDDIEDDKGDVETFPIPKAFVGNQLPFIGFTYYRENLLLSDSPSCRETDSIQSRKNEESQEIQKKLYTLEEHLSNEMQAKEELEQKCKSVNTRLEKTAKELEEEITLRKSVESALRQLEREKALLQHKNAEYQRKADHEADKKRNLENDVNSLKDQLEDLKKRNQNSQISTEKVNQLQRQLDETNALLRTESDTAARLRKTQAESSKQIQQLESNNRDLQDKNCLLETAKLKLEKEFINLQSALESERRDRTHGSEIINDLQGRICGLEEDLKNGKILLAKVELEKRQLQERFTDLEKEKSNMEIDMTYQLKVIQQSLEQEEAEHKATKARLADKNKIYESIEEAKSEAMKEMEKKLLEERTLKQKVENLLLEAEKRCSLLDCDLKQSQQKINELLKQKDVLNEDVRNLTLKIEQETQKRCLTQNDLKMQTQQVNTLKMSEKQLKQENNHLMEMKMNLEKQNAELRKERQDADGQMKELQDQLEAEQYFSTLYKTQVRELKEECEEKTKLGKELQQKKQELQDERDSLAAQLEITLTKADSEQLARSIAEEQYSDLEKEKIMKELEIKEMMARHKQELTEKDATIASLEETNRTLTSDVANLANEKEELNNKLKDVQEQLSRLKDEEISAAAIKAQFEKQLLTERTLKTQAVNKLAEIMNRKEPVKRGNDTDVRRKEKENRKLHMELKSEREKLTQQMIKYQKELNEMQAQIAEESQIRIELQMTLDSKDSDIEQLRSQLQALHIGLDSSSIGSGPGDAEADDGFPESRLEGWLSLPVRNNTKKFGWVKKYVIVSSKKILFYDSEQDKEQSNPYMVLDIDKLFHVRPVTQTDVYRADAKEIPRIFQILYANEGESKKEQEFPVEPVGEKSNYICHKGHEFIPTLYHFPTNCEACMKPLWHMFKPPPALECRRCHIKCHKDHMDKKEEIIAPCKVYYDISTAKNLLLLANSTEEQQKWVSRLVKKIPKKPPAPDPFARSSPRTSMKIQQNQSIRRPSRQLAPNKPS

[12] = biological target: human ether-à-go-go-related gene (hERG) current (Homo sapiens, UniProt Q12809); assay: hERG current in vitro; assay type: biochemical
Chain of human ether-à-go-go-related gene (hERG) current (Q12809 whole entry): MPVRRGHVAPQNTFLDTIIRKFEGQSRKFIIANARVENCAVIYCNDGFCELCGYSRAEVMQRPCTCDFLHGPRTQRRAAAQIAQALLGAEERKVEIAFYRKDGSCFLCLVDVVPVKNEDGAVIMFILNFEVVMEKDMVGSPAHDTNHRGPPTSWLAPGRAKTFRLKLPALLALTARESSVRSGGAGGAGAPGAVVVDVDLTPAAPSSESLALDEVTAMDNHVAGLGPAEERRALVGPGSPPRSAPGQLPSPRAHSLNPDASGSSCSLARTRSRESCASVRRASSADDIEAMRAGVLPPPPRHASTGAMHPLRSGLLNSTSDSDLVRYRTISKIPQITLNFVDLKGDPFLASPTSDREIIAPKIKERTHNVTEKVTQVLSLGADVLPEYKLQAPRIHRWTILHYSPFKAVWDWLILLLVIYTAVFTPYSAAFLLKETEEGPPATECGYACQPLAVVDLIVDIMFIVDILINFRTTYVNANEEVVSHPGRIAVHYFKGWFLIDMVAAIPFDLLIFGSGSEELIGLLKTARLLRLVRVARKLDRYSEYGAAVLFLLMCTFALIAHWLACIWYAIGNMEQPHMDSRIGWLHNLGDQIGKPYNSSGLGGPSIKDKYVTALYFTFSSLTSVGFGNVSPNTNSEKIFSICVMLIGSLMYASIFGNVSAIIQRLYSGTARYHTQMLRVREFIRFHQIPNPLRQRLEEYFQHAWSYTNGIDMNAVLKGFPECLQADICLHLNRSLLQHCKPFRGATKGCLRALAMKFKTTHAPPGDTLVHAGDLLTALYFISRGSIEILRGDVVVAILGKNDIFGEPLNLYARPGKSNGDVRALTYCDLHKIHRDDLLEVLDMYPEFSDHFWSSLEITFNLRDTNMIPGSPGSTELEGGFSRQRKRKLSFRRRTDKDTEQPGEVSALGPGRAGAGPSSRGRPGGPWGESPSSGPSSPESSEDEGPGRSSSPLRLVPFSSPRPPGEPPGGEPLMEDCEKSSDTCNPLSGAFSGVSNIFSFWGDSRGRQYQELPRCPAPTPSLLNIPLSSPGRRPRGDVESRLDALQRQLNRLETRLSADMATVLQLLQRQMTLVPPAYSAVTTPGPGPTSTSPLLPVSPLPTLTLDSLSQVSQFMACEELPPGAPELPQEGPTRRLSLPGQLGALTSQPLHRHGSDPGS

[13] = N=65, through Cycle 7 Day 1, listed as belumosudil
[14] = with proton pump inhibitor rabeprazole
[15] = with strong CYP3A inducer rifampicin

T1 sequence (P22309 26-533): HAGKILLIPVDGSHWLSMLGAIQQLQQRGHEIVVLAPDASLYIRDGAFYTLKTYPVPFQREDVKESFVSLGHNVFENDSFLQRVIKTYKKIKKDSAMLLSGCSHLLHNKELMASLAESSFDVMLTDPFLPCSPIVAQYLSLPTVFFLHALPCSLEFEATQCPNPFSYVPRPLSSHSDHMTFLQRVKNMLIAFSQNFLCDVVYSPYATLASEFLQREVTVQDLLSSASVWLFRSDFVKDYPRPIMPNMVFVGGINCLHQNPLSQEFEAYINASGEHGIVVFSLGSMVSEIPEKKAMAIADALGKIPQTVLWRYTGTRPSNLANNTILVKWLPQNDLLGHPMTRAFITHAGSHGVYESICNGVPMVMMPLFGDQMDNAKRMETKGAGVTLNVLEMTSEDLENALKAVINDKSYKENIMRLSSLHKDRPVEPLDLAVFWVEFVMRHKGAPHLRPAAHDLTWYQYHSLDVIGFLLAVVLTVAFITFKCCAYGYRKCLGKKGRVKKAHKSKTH

**Q.** Which UGT1A1 inhibition (UGT1A1 [1]) does the source give for CC(C)NC(=O)COc1cccc(-c2nc(Nc3ccc4[nH]ncc4c3)c3ccccc3n2)c1 [Belumosudil] here?
**A.** Its UGT1A1 inhibition is “inhibit”.

**Q.** And the “Median time from first response to death or new systemic therapy” value [2]?
**A.** The value was “Not estimable”.

**Q.** What about the “Median time from first response to death or new systemic therapy” value ([2]; listed as belumosudil) of the same compound?
**A.** Its value is “not reached”.

**Q.** And the “Overall response rate (ORR) through Cycle 7 Day 1 (CR or PR)” value [2]?
**A.** Its value is 49 (75%) (63% - 85%).

**Q.** What about the “Overall response rate (ORR) through Cycle 7 Day 1 (CR or PR)” value ([2]; listed as belumosudil) of the same compound?
**A.** Its value is 75%.

**Q.** What about the “Patients with 7-point or greater decrease in Lee Symptom Scale summary score through Cycle 7 Day 1” value [2] of the same compound?
**A.** Its value is “(52%) (40% - 65%)”.

**Q.** What about the “Patients with 7-point or greater decrease in Lee Symptom Scale summary score through Cycle 7 Day 1” value ([2]; listed as belumosudil) of the same compound?
**A.** The value was 52%.

**Q.** What about the “Complete Response (CR)” value ([2]; N=65, through Cycle 7 Day 1) of the same compound?
**A.** The value was 4 (6%).

**Q.** And the “Partial Response (PR)” value ([2]; N=65, through Cycle 7 Day 1)?
**A.** Its value is 45 (69%).

**Q.** What about the “Complete Response (CR)” value [2, 13] of the same compound?
**A.** Its value is 6%.

**Q.** What about the “Partial Response (PR)” value [2, 13] of the same compound?
**A.** The value was 69%.

**Q.** And the “Median duration of response” value [2]?
**A.** The value was 1.9 months (1.2-2.9 months).

**Q.** What about the “Median duration of response” value ([2]; listed as belumosudil) of the same compound?
**A.** Its value is 1.9 months.

**Q.** What about the mTOR pathway inhibition (mTOR pathway) of the same compound?
**A.** Its mTOR pathway inhibition is “inhibited”.

**Q.** What about the CYP2D6 inhibition (CYP2D6) of the same compound?
**A.** The CYP2D6 inhibition was “inhibit”.

**Q.** And the “Target organs of toxicity” value (animals)?
**A.** Its value is “toxicities were observed in the gastrointestinal tract, liver, kidney, hemolymphoid system, and reproductive system”.

**Q.** And the “Effect on blood pressure” value (dogs)?
**A.** Its value is “lowering of the blood pressure”.

**Q.** What about the “Effect on CYP3A” value (CYP3A) of the same compound?
**A.** The value was “little effect”.

**Q.** What about the “Incidence of Viral infection” value ([3]; Grades ≥ 3, 200 mg daily, n=83) of the same compound?
**A.** The value was 4%.

**Q.** What about the “Adverse reactions leading to dose interruption” value ([3]; human, in vivo) of the same compound?
**A.** The value was 29%.

**Q.** And the “Dose interruption due to diarrhea” value ([3]; human, in vivo)?
**A.** The value was 4%.

**Q.** And the “Dose interruption due to infections” value ([3]; human, in vivo)?
**A.** Its value is 11%.

**Q.** And the “Delay of Tmax with food” value ([4]; administration with food)?
**A.** The value was 0.5 h.

**Q.** And the “Increase of AUC with food” value ([4]; administration with food)?
**A.** Its value is 2 times.

**Q.** What about the “Increase of Cmax with food” value ([4]; administration with food) of the same compound?
**A.** The value was 2.2 times.

**Q.** And the “Excretion in feces unchanged” value ([4]; human, in vivo)?
**A.** The value was 30%.

**Q.** What about the Tmax ([4]; human, in vivo, oral) of the same compound?
**A.** The Tmax was 1.26 h.

**Q.** And the “cGVHD-related clinical and histological abnormality scores in the lung and skin” value (cGVHD mouse models)?
**A.** Its value is “improvement”.

**Q.** And the p-glycoprotein inhibition (p-glycoprotein)?
**A.** The p-glycoprotein inhibition was “inhibit”.

**Q.** What about the “Metabolism by CYP3A4” value (CYP3A4) of the same compound?
**A.** Its value is “metabolized primarily”.

**Q.** And the “Effect of a diagnosis of GVHD on clearance” value [5]?
**A.** The value was “decreased clearance”.

**Q.** What about the MRTF-mediated gene expression (MRTF) of the same compound?
**A.** Its MRTF-mediated gene expression is “inhibited”.

**Q.** What about the Photoabsorbance (Photoabsorbance in vitro) of the same compound?
**A.** The Photoabsorbance was “observed”.

**Q.** And the BCRP inhibition (BCRP)?
**A.** The BCRP inhibition was “inhibit”.

**Q.** What about the CYP1A2 inhibition (CYP1A2) of the same compound?
**A.** Its CYP1A2 inhibition is “inhibit”.

**Q.** And the “Reduction of belumosudil Cmax” value [6, 14]?
**A.** Its value is “up to 87%”.

**Q.** And the “Reduction of belumosudil overall exposure” value [6, 14]?
**A.** The value was “up to 80%”.

**Q.** And the “Reduction of belumosudil Cmax” value [6, 15]?
**A.** The value was “approximately 60%”.

**Q.** What about the “Reduction of belumosudil overall exposure” value [6, 15] of the same compound?
**A.** The value was “approximately 72%”.

**Q.** And the Embryo-fetal toxicity [7]?
**A.** Its Embryo-fetal toxicity is “embryo-fetal toxicity”.

**Q.** And the Male fertility [7]?
**A.** Its Male fertility is “impaired male fertility”.

**Q.** And the “STAT3 phosphorylation and transcriptional activity” value (STAT3)?
**A.** Its value is “inhibited”.

**Q.** What about the “Relationship of response with exposure” value (patients with cGVHD [8]) of the same compound?
**A.** The value was “no relationship”.

**Q.** What about the UGT1A1 inhibition (UGT1A1 [9]) of the same compound?
**A.** Its UGT1A1 inhibition is “inhibited”.

**Q.** And the Tissue distribution (Tissue distribution)?
**A.** Its Tissue distribution is “distributed to photosensitive areas such as skin and uveal tract”.

**Q.** And the CYP2C19 inhibition (CYP2C19)?
**A.** Its CYP2C19 inhibition is “inhibit”.

**Q.** What about the “Metabolism by CYP2C8” value (CYP2C8) of the same compound?
**A.** The value was “to a lesser extent”.

**Q.** What about the OATP1B1 inhibition (OATP1B1) of the same compound?
**A.** Its OATP1B1 inhibition is “inhibit”.

**Q.** What about the “Secretion of IL-21 and IL-17” value [10] of the same compound?
**A.** The value was “inhibited”.

**Q.** And the ROCK1 isoform inhibition (ROCK1 isoform)?
**A.** Its ROCK1 isoform inhibition is “with less potency”.

**Q.** What about the “Activity in cGVHD” value (patients with cGVHD [11]) of the same compound?
**A.** Its value is “appeared to be active”.

**Q.** What about the ROCK2 inhibition (ROCK2) of the same compound?
**A.** Its ROCK2 inhibition is “inhibitor”.

**Q.** And the hERG current [12]?
**A.** Its hERG current is “blocked”.

**Q.** Which ROCK2 inhibition (ROCK2) does the source give for NC(=O)COc1cccc(-c2nc(Nc3ccc4[nH]ncc4c3)c3ccccc3n2)c1 [KD025m1] here?
**A.** Its ROCK2 inhibition is “inhibit”.

**Q.** For O=C(O)COc1cccc(-c2nc(Nc3ccc4[nH]ncc4c3)c3ccccc3n2)c1 [KD025m2], which ROCK2 inhibition (ROCK2) is on record?
**A.** The ROCK2 inhibition was “inhibit”.
